Read-outs that look alike come from different tables or passages of the source. Values belong to the compound of their own block, whether it stands above or below them.
How the values were obtained:
[1] = Cytotoxicity / MDR reversal assay, MDR19-HEK293; format: cell-based, human; conditions: human, MDR19-HEK293 cells (ABCB1-transfected HEK293)
[2] = tested on: MDR19-HEK293 (ABCB1) cells; assay: Cytotoxicity / MDR reversal assay, MDR19-HEK293; format: cell-based, human; conditions: for R.R of doxorubicin in the presence of the treatment: MDR19-HEK293 / pcDNA-HEK293
pcDNA-HEK293 cells = assay: Cytotoxicity / MDR reversal assay, pcDNA-HEK293; format: cell-based; conditions: Homo sapiens
in vitro [3] = conditions: human, MRP1-HEK293 cells (ABCC1-transfected HEK293)
[4] = tested on: MRP1-HEK293 (ABCC1) cells; conditions: for R.R of etoposide in the presence of the treatment: MRP1-HEK293 / pcDNA-HEK293
ABCG2 [5] = molecular target: T1, ABCG2 (Homo sapiens, UniProt Q9UNQ0)
T1 sequence (Q9UNQ0 1-655): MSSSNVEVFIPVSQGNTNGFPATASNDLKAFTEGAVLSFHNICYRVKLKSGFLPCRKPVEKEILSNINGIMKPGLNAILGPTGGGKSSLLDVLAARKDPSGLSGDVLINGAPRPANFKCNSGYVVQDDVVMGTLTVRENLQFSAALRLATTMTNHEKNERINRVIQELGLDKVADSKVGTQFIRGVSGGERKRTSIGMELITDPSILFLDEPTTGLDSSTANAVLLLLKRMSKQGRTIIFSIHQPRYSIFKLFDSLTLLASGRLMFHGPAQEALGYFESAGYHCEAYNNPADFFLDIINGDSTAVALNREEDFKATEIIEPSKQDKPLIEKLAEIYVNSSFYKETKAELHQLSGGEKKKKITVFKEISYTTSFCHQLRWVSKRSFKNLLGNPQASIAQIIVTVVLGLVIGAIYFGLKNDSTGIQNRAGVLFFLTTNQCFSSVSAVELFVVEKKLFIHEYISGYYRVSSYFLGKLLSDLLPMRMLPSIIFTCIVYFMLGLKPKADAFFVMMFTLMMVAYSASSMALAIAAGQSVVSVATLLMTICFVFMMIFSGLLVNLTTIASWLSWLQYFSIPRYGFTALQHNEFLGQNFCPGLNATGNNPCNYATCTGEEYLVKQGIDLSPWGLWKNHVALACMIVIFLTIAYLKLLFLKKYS

A375-G2 cells = assay: cells; format: cell-based, human; conditions: for IC50: Homo sapiens, A-375
[6] = tested on: R482-HEK293 (ABCG2) cells; assay: in vitro; format: cell-based, human; conditions: for R.R (relative resistance): IC50 R482-HEK293 / IC50 pcDNA-HEK293, drug alone
[7] = tested on: BRAF(V600E) mutant A375 melanoma cells; assay: cells; format: cell-based, human
in vitro [8] = format: cell-based, human; conditions: human, R482-HEK293 cells (ABCG2-transfected HEK293)
ABCG2 (R482T) = ABCG2 (R482T) (Homo sapiens, UniProt Q9UNQ0, R482T); assay: ABCG2-mediated mitoxantrone efflux, flow cytometry, MCF7-AdVp3000
ABCG2 (R482T), sequence (Q9UNQ0 whole entry R482T): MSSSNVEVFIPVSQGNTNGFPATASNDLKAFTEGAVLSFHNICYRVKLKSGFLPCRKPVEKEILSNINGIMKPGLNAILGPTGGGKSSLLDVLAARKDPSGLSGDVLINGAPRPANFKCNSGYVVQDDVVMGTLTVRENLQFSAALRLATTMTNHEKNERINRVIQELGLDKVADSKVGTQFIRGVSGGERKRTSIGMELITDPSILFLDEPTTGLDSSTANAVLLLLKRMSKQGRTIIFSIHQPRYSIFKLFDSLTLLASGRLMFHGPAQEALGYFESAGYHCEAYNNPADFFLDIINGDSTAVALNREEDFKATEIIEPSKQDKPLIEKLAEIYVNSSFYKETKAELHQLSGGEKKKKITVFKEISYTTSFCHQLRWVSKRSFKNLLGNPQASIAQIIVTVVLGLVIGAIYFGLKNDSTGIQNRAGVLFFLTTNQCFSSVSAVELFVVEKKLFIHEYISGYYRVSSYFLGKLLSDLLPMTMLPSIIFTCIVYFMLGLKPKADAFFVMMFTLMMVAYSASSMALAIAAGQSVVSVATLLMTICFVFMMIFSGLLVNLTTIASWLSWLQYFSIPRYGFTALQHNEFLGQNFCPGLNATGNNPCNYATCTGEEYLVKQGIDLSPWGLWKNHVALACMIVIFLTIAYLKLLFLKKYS

ABCC1 = format: cell-based, human; conditions: CORL-23/R; 0.3 µM-10 µM, 72 h
BRAF kinase = BRAF kinase activity in A375 and A375-G2 cells; format: cell-based, human; conditions: 0.2 – 5.0 µM, 4 h
S1 cells = assay: Cytotoxicity assay; format: cell-based; conditions: Homo sapiens
KBV-1 cells = assay: cells; conditions: Homo sapiens, KB-V1
ABCG2 (wild type R482) = ABCG2 (wild type R482) (Homo sapiens, UniProt Q9UNQ0); assay: ABCG2-mediated mitoxantrone efflux, flow cytometry, MCF7-FLV1000
ABCG2 [9] = molecular target: T1, ABCG2; assay: Vi-sensitive ATPase activity of ABCG2; format: biochemical
[10] = tested on: drug sensitive parental cells; assay: Fluorescent probe accumulation in drug sensitive parental cells; format: cell-based, human; conditions: up to 50 µM
ABCG2 [11] = conditions: 2 µM; ABCG2-overexpressing HEK293, MCF7-FLV1000, MCF7-AdVp3000 and S1-M1-80
S1-M1-80 cells = assay: cells; conditions: Homo sapiens
KB-3-1 cells = assay: Cytotoxicity assay; format: cell-based; conditions: Homo sapiens
CORL-23/P cells = assay: Cytotoxicity assay; format: cell-based; conditions: Homo sapiens, COR-L23
ABCG2 (R482G) = ABCG2 (R482G) (Homo sapiens, UniProt Q9UNQ0, R482G); assay: ABCG2-mediated mitoxantrone efflux, flow cytometry, S1-M1-80
ABCG2 (R482G), sequence (Q9UNQ0 whole entry R482G): as the sequence (Q9UNQ0 whole entry R482T) above, with T482G counted along it

MCF7 cells = assay: Cytotoxicity assay; format: cell-based; conditions: Homo sapiens
ABCG2 [12] = conditions: MCF7-FLV1000; 0.3 µM-10 µM, 72 h
ABCB1 [13] = molecular target: T2, ABCB1 (Homo sapiens, UniProt P08183); assay: cell-based
T2 sequence (P08183 whole entry): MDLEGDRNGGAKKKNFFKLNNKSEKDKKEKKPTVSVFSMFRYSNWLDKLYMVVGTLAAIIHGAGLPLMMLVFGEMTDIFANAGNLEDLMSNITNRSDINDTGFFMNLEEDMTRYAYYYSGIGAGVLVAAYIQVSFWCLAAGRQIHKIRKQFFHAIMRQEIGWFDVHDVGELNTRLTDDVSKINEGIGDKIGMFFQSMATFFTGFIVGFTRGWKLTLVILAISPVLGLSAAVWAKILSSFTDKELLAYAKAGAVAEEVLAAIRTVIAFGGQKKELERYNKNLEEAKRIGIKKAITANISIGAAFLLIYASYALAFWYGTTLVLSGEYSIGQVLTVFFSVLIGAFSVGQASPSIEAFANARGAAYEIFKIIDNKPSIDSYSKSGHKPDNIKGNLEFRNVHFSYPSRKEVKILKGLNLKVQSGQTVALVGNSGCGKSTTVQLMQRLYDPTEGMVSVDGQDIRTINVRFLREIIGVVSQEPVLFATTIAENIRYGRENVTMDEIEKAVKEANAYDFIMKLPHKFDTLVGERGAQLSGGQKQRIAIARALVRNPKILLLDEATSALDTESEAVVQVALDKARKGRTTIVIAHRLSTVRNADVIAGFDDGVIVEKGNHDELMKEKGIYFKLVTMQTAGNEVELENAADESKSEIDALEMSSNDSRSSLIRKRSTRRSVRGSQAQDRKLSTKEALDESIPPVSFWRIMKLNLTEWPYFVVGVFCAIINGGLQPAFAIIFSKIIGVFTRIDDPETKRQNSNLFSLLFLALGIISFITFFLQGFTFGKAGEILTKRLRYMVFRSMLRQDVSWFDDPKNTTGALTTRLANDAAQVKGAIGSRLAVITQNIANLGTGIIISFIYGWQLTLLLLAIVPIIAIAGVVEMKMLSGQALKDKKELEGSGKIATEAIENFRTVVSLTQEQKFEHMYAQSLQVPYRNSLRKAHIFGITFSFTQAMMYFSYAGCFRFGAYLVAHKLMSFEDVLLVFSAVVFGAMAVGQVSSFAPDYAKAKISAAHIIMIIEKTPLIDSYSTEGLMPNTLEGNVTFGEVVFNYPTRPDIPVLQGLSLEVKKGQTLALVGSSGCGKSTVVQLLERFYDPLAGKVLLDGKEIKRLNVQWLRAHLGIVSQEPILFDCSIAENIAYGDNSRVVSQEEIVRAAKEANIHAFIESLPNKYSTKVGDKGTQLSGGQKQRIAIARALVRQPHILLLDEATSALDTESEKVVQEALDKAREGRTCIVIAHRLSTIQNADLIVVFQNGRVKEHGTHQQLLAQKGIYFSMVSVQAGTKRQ

ABCB1 [14] = molecular target: T2, ABCB1; assay: Vi-sensitive ATPase activity of ABCB1; format: biochemical
CORL-23/R cells = assay: cells; conditions: Homo sapiens, COR-L23/R
ABCB1 [15] = molecular target: T2, ABCB1; assay: ABCB1-mediated calcein-AM efflux, flow cytometry; conditions: 2 µM, MDR19-HEK293 and KBV-1
ABCB1 [16] = molecular target: T2, ABCB1; assay: [125I]IAAP photoaffinity labeling of ABCB1
ABCB1 [17] = conditions: KBV-1; 0.3 µM-10 µM, 72 h
Colo-205 cells = assay: Cytotoxicity assay; format: cell-based; conditions: Homo sapiens
ABCG2 [18] = molecular target: T1, ABCG2; assay: biochemical
MCF7-AdVp3000 cells = assay: cells; conditions: Homo sapiens
MCF7-FLV1000 cells = assay: cells; conditions: Homo sapiens, MCF-7 FLV1000
[19] = doxorubicin + treatment at 1 µM

Compound: COc1cccc2c1C(=O)c1c(O)c3c(c(O)c1C2=O)C[C@@](O)(C(=O)CO)C[C@@H]3O[C@H]1C[C@H](N)[C@H](O)[C@H](C)O1 [Doxorubicin]
IC50 [1]: 594 ± 78 nM
R.R (relative resistance) ([2]; IC50 MDR19-HEK293 / IC50 pcDNA-HEK293, drug alone): 32
IC50 (pcDNA-HEK293 cells): 18.5 ± 8.31 nM

IC50 (in vitro [3]): 34900 ± 4030 nM
Compound: COc1cc([C@@H]2c3cc4c(cc3[C@@H](O[C@@H]3O[C@@H]5CO[C@@H](C)O[C@H]5[C@H](O)[C@H]3O)[C@H]3COC(=O)[C@H]23)OCO4)cc(OC)c1O [Etoposide]
R.R (relative resistance) ([4]; IC50 MRP1-HEK293 / IC50 pcDNA-HEK293, drug alone): 161
IC50 (pcDNA-HEK293 cells): 217 ± 72 nM

Compound: COc1ccc2c3c([nH]c2c1)[C@H](C=C(C)C)N1C(=O)[C@@H]2CCCN2C(=O)[C@@H]1C3 [FTC, Fumitremorgin C]
ABCG2-mediated efflux of pheophorbide A (ABCG2 [5]; A375-G2, 5 µM): inhibited completely
R.R of mitoxantrone in the presence of the treatment (A375-G2 cells; A375-G2 / A375, mitoxantrone + treatment at 3 µM): 2
R.R of vemurafenib in the presence of the treatment (A375-G2 cells; A375-G2 / A375, vemurafenib + treatment at 3 µM): 1
reversal of ABCG2-mediated resistance to vemurafenib (A375-G2 cells; A375-G2, FTC 3 µM (Table 2)): reversed completely
R.R of mitoxantrone in the presence of the treatment ([6]; R482-HEK293 / pcDNA-HEK293, mitoxantrone + treatment at 3 µM): 5
R.R of topotecan in the presence of the treatment ([6]; R482-HEK293 / pcDNA-HEK293, topotecan + treatment at 3 µM): 3

Compound: O=C1c2c(O)ccc(O)c2C(=O)c2c(NCCNCCO)ccc(NCCNCCO)c21 [Mitoxantrone]
IC50 ([7]; Homo sapiens, A-375, A375, drug alone): 2.35 ± 0.64 nM
fold more resistant, A375-G2 than parental A375 cells (A375-G2 cells): over 6 fold
IC50 (A375-G2 cells): 15 ± 3.48 nM
R.R (relative resistance) (A375-G2 cells; IC50 A375-G2 / IC50 A375, drug alone): 6
IC50 (in vitro [8]): 178 ± 19 nM
R.R (relative resistance) [6]: 34
IC50 (pcDNA-HEK293 cells): 5.3 ± 1.24 nM

Compound: COc1cc2c(cc1OC)CN(CCc1ccc(NC(=O)c3cc(OC)c(OC)cc3NC(=O)c3cnc4ccccc4c3)cc1)CC2 [Tariquidar]
R.R of doxorubicin in the presence of the treatment [2, 19]: 3

IC50 (in vitro [8]): 510 ± 94.5 nM
Compound: CC[C@@]1(O)C(=O)OCc2c1cc1n(c2=O)Cc2cc3c(CN(C)C)c(O)ccc3nc2-1 [Topotecan]
R.R (relative resistance) [6]: 28
IC50 (pcDNA-HEK293 cells): 18.3 ± 4.48 nM

Compound: CCCS(=O)(=O)Nc1ccc(F)c(C(=O)c2c[nH]c3ncc(-c4ccc(Cl)cc4)cc23)c1F [Vemurafenib]
IC50 (ABCG2 (R482T)): 4910 nM
effect on ABCC1 protein expression level (ABCC1): no significant effect
ABCG2-mediated efflux of pheophorbide A (ABCG2 [5]): inhibited completely
R.R of mitoxantrone in the presence of the treatment (A375-G2 cells; A375-G2 / A375, mitoxantrone + treatment at 0.02 µM): 2
inhibitory effect on p-MEK1/2, A375 versus A375-G2 (BRAF kinase): comparable
levels of total MEK1/2 and ERK1/2 (BRAF kinase; A375 and A375-G2): remained unchanged
levels of p-MEK1/2 and p-ERK1/2 (BRAF kinase; A375 and A375-G2, concentration-dependent): reduced
IC50 (S1 cells): 13600 ± 3840 nM
IC50 (KBV-1 cells): 16900 ± 4970 nM
IC50 (ABCG2 (wild type R482)): 1240 nM
stimulation of ATPase activity above basal level (ABCG2 [9]; lower concentrations): ~ 95%
effect on accumulation of fluorescent probes in drug sensitive parental cells [10]: no effect
ABCG2-mediated efflux of PhA (ABCG2 [11]): inhibited significantly
IC50 (S1-M1-80 cells): 14700 ± 3020 nM
IC50 (KB-3-1 cells): 14800 ± 4190 nM
R.R of etoposide in the presence of the treatment ([4]; etoposide + treatment at 1 µM): 159
R.R of etoposide in the presence of the treatment ([4]; etoposide + treatment at 2 µM): 165
R.R of etoposide in the presence of the treatment ([4]; etoposide + treatment at 5 µM): 116
IC50 (CORL-23/P cells): 8520 ± 1390 nM
IC50 (ABCG2 (R482G)): 2600 nM
IC50 (MCF7 cells): 53600 ± 9420 nM
effect on ABCG2 protein expression level (ABCG2 [12]): no significant effect
IC50 (ABCB1 [13]): > 50000 nM
inhibition of ATPase activity (ABCB1 [14]; higher concentrations): ~ 50%
stimulation of ATPase activity above basal level (ABCB1 [14]; lower concentrations): ~ 40%
R.R of doxorubicin in the presence of the treatment [2, 19]: 23
R.R of doxorubicin in the presence of the treatment ([2]; doxorubicin + treatment at 2 µM): 23
IC50 (CORL-23/R cells): 8540 ± 2250 nM
effect on drug efflux mediated by ABCB1 (ABCB1 [15]): no significant effect
IC50 (ABCB1 [16]): 4510 nM
effect on ABCB1 protein expression level (ABCB1 [17]): no significant effect
IC50 (Colo-205 cells): 118 ± 11 nM
IC50 (ABCG2 [18]): 570 nM
IC50 (MCF7-AdVp3000 cells): 70000 ± 27400 nM
IC50 (MCF7-FLV1000 cells): 58700 ± 15800 nM
IC50 (pcDNA-HEK293 cells): 28100 ± 6930 nM

From PMC3553236 (Biochemical pharmacology, 2012)
